In US10676446B2, “Bicyclic quinazolinone derivatives” (Hoffmann-La Roche Inc., priority 2015, dated 2020):

Target: human ATX (autotaxin, ENPP2), His-tagged (Homo sapiens (Human), UniProt Q13822)
Assay: Human ATX enzyme inhibition assay (fluorescence quenching, MR121 substrate)
Type: biochemical
Details: 30 nM ATX, 1 μM MR121 substrate, 30° C., pH 8.0
Procedure: Human ATX Enzyme Inhibition Assay
ATX inhibition was measured by a fluorescence quenching assay using a specifically labeled substrate analogue (MR121 substrate). To obtain this MR121 substrate, BOC and TBS protected 6-amino-hexanoic acid (R)-3-({2-[3-(2-{2-[2-(2-amino-ethoxy)-ethoxy]-ethoxy}-ethoxy)-propionylamino]-ethoxy}-hydroxy-phosphoryloxy)-2-hydroxy-propyl ester (Ferguson et al., Org. Lett. 2006, 8, 2023) was labeled with MR121 fluorophore [CAS RN 185308-24-1], 1-(3-carboxypropyl)-11-ethyl-1,2,3,4,8,9,10,11-octahydro-dipyrido[3,2-b:2′,3′-i]phenoxazin-13-ium) on the free amine of the ethanolamine side and then, after deprotection, subsequently with tryptophan on the side of the aminohexanoic acid.
Assay working solutions were made as follows:
Assay buffer (50 mM Tris-HCl, 140 mM NaCl, 5 mM KCl, 1 mM CaCl2, 1 mM MgCl2, 0.01% Triton-X-100, pH 8.0;
ATX solution: ATX (human His-tagged) stock solution (1.08 mg/mL in 20 mM bicine, pH 8.5, 0.15 M NaCl, 10% glycerol, 0.3% CHAPS, 0.02% NaN3), diluted to 1.4-2.5× final concentration in assay buffer;
MR121 substrate solution: MR121 substrate stock solution (800 μM MR121 substrate in DMSO), diluted to 2-5× final concentration in assay buffer.
Test compounds (10 mM stock in DMSO, 8 μL) were obtained in 384 well sample plates (Corning Costar #3655) and diluted with 8 μL DMSO. Row-wise serial dilutions were made by transferring 8 μL cpd solution to the next row up to row O. The compound and control solutions were mixed five times and 2 μL were transferred to 384 well assay plates (Corning Costar #3702). Then, 15 μL of 41.7 nM ATX solution was added (30 nM final concentration), mixed five times and then incubated for 15 minutes at 30° C. 10 μL of MR121 substrate solution was added (1 μM final concentration), mixed 30 times and then incubated for 15 minutes at 30° C.

Work on CS(=O)(=O)N1CCN(c2ccc3ncn(CC(=O)NCc4ccc(Cl)c(Cl)c4)c(=O)c3c2)CC1 [Example 88, N-[(3,4-Dichlorophenyl)methyl]-2-[6-(4-methylsulfonylpiperazin-1-yl)-4-oxoquinazolin-3-yl]acetamide] yielded an IC50 of 88 nM.
Molecule CN(Cc1ccc(Cl)c(Cl)c1)C(=O)Cn1cnc2ccc(C3CCN(C(=O)C(C)(C)O)CC3)cc2c1=O [Example 172] has an IC50 of 21 nM.
For CN(Cc1ccc(Cl)c(Cl)c1)C(=O)Cn1cnc2ccc(N3CCN(C(=O)C4(C)COC4)CC3)cc2c1=O [Example 80], the IC50 was 12 nM.
CC(=O)N1CCN(c2ccc3ncn(CC(=O)NCc4ccc(C#N)nc4)c(=O)c3c2)CC1 [Example 18] gave an IC50 of 14 nM.
For CC(=O)N1CCC(c2ccc3ncn(CC(=O)N(C)Cc4ccc(Cl)c(OC(F)(F)F)c4)c(=O)c3c2)CC1 [Example 128, 2-[6-(1-Acetylpiperidin-4-yl)-4-oxoquinazolin-3-yl]-N-[[4-chloro-3-(trifluoromethoxy)phenyl]methyl]-N-methylacetamide], the IC50 was 15 nM.
With CC(=O)N1CCN(c2ccc3ncn(CC(=O)NCc4cc(-c5ccc(Cl)cc5)no4)c(=O)c3c2)CC1 [Example 50] the IC50 was 456 nM.
CC(=O)N1CCN(c2ccc3ncn(CC(=O)NCc4ccc(Cl)nc4)c(=O)c3c2)CC1 [Example 11] gave an IC50 of 119 nM.
With CC(=O)N1CCCN(c2ccc3ncn(CC(=O)N(C)Cc4ccc(Cl)c(C#N)c4)c(=O)c3c2)CC1 [Example 121] the IC50 was 20 nM.
With O=C(Cn1cnc2ccc(N3CCN(Cc4ccoc4C(=O)O)CC3)cc2c1=O)NCc1ccc(Cl)c(Cl)c1 [Example 102] the IC50 was 195 nM.
CC(=O)N1CCN(c2ccc3ncn(CC(=O)N4CCCC4c4ccc(Cl)cc4)c(=O)c3c2)CC1 (stereo not drawn) [Example 47] showed an IC50 of 341 nM.
In the case of COC(C)C(=O)N1CCC(c2ccc3ncn(CC(=O)N(C)Cc4ccc(Cl)c(Cl)c4)c(=O)c3c2)CC1 (stereo not drawn) [Example 173], the IC50 is reported as 8 nM.
CNC(=O)CC(NC(=O)Cn1cnc2ccc(N3CCN(C(C)=O)CC3)cc2c1=O)c1ccc(Cl)c(Cl)c1 (stereo not drawn) [Example 52, 3-[[2-[6-(4-Acetylpiperazin-1-yl)-4-oxoquinazolin-3-yl]acetyl]amino]-3-(3,4-dichlorophenyl)-N-methylpropanamide] showed an IC50 of 72 nM.
Molecule O=C(Cn1cnc2ccc(N3CCN(C(=O)NC4CCCC4)CC3)cc2c1=O)NCc1ccc(Cl)c(Cl)c1 [Example 84] has an IC50 of 2 nM.
CC(=O)N1CCN(c2ccc3ncn(CC(=O)NCc4ccc(C#N)c(F)c4)c(=O)c3c2)CC1 [Example 28, 2-[6-(4-Acetylpiperazin-1-yl)-4-oxoquinazolin-3-yl]-N-[(4-cyano-3-fluorophenyl)methyl]acetamide] showed an IC50 of 27 nM.
Molecule CC(=O)N1CCN(c2ccc3ncn(CC(=O)NC(CC(=O)N(C)C)c4ccc(C(F)(F)F)cc4)c(=O)c3c2)CC1 (stereo not drawn) [Example 5] has an IC50 of 121 nM.
Work on CN(Cc1ccc(Cl)c(Cl)c1)C(=O)Cn1cnc2ccc(C3CCN(C(=O)C4(C)CCCO4)CC3)cc2c1=O (stereo not drawn) [Example 181] yielded an IC50 of 8 nM.
With COCC(=O)N1CCC(c2ccc3ncn(CC(=O)N(Cc4ccc(Cl)c(Cl)c4)C4CC4)c(=O)c3c2)CC1 [Example 146, N-Cyclopropyl-N-[(3,4-dichlorophenyl)methyl]-2-[6-[1-(2-methoxyacetyl)piperidin-4-yl]-4-oxoquinazolin-3-yl]acetamide] the IC50 was 1 nM.
With CN(Cc1ccc(C#N)c(Cl)c1)C(=O)Cn1cnc2ccc(C3CCN(C(=O)C4COC4)CC3)cc2c1=O [Example 142] the IC50 was 60 nM.
In the case of CC(=O)N1CCN(c2ccc3ncn(CC(=O)NC(CC(=O)N(C)C)c4ccc(Cl)cc4)c(=O)c3c2)CC1 (stereo not drawn) [Example 2], the IC50 is reported as 360 nM.
CN(Cc1ccc(Cl)c(Cl)c1)C(=O)Cn1cnc2ccc(N3CCN(C(=O)C4CC(F)(F)C4)CC3)cc2c1=O [Example 75] showed an IC50 of 5 nM.
CC(=O)N1CCN(c2ccc3ncn(CC(=O)NCc4ccc5c(c4)OCO5)c(=O)c3c2)CC1 [Example 15] was tested, and the IC50 was 415 nM.
CC(=O)N1CCN(c2ccc3ncn(CC(=O)NCc4ccnc(Cl)c4)c(=O)c3c2)CC1 [Example 36] was tested, and the IC50 was 346 nM.
CN(Cc1ccc(C#N)c(Cl)c1)C(=O)Cn1cnc2ccc(N3CCCN(CC4CCOC4)CC3)cc2c1=O (stereo not drawn) [Example 129, N-[(3-Chloro-4-cyanophenyl)methyl]-N-methyl-2-[4-oxo-6-[4-(oxolan-3-ylmethyl)-1,4-diazepan-1-yl]quinazolin-3-yl]acetamide] was tested, and the IC50 was 26 nM.
CN(Cc1ccc(C#N)c(Cl)c1)C(=O)Cn1cnc2ccc(C3CCN(C(=O)CC#N)CC3)cc2c1=O [Example 154, N-[(3-Chloro-4-cyanophenyl)methyl]-2-[6-[1-(2-cyanoacetyl)piperidin-4-yl]-4-oxoquinazolin-3-yl]-N-methylacetamide] gave an IC50 of 2 nM.
In the case of O=C(Cn1cnc2ccc(N3CCN(CC4CCC4)CC3)cc2c1=O)NCc1ccc(Cl)c(Cl)c1 [Example 96], the IC50 is reported as 11 nM.
Work on CN(Cc1ccc(Cl)c(Cl)c1)C(=O)Cn1cnc2ccc(C3CCN(C(=O)c4cnco4)CC3)cc2c1=O [Example 183] yielded an IC50 of 28 nM.
CN(Cc1ccc(C#N)c(Cl)c1)C(=O)Cn1cnc2ccc(C3CCN(C(=O)C4CC(Cl)C4)CC3)cc2c1=O (stereo not drawn) [Example 139] showed an IC50 of 18 nM.
With CC(=O)N1CCN(c2ccc3ncn(CC(=O)NCc4noc(-c5ccc(Cl)cc5)n4)c(=O)c3c2)CC1 [Example 51] the IC50 was 51 nM.
With CC(=O)N1CCN(c2ccc3ncn(CC(=O)NCc4ccc(S(C)(=O)=O)c(C)c4)c(=O)c3c2)CC1 [Example 40] the IC50 was 1560 nM.
CC(=O)N1CCN(c2ccc3ncn(CC(=O)NCc4ccc(Cl)cc4Cl)c(=O)c3c2)CC1 [Example 23] was tested, and the IC50 was 72 nM.
For CC(=O)N1CCN(c2ccc3ncn(CC(=O)N(C)Cc4ccc(C#N)c(F)c4)c(=O)c3c2)CC1 [Example 45], the IC50 was 38 nM.
In the case of COCCC(NC(=O)Cn1cnc2ccc(N3CCN(C(C)=O)CC3)cc2c1=O)c1ccc(Cl)c(Cl)c1 (stereo not drawn) [Example 153, 2-[6-(4-Acetylpiperazin-1-yl)-4-oxoquinazolin-3-yl]-N-[1-(3,4-dichlorophenyl)-3-methoxypropyl]acetamide], the IC50 is reported as 36 nM.
CC(=O)N1CCN(c2ccc3ncn(CC(=O)NC(C)c4ccc(Cl)cc4)c(=O)c3c2)CC1 (stereo not drawn) [Example 13] was tested, and the IC50 was 478 nM.
For CO[C@H](C)C(=O)N1CCC(c2ccc3ncn(CC(=O)N(C)Cc4ccc(Cl)c(Cl)c4)c(=O)c3c2)CC1 [Example 167], the IC50 was 4 nM.
Molecule O=C(Cn1cnc2ccc(N3CCN(C(=O)c4ccno4)CC3)cc2c1=O)NCc1ccc(Cl)c(Cl)c1 [Example 67] has an IC50 of 15 nM.
CC(=O)N1CCN(c2ccc3ncn(CC(=O)N4CCC[C@@H]4c4ccc(C)cc4)c(=O)c3c2)CC1 [Example 48] was tested, and the IC50 was 1580 nM.
In the case of Cc1noc(C)c1NC(=O)N1CCN(c2ccc3ncn(CC(=O)NCc4ccc(Cl)c(Cl)c4)c(=O)c3c2)CC1 [Example 86], the IC50 is reported as 133 nM.
Molecule CC(=O)N1CCN(c2ccc3ncn(CC(=O)NCc4c(F)cc(C#N)cc4F)c(=O)c3c2)CC1 [Example 31] has an IC50 of 331 nM.
Molecule CC(=O)N1CCC(O)(c2ccc3ncn(CC(=O)N(C)Cc4ccc(C#N)c(Cl)c4)c(=O)c3c2)CC1 [Example 185, 2-[6-(1-Acetyl-4-hydroxypiperidin-4-yl)-4-oxoquinazolin-3-yl]-N-[(3-chloro-4-cyanophenyl)methyl]-N-methylacetamide] has an IC50 of 125 nM.
O=C(Cn1cnc2ccc(N3CCN(S(=O)(=O)C4CCCCC4)CC3)cc2c1=O)NCc1ccc(Cl)c(Cl)c1 [Example 90] gave an IC50 of 35 nM.
CN(Cc1ccc(Cl)c(Cl)c1)C(=O)Cn1cnc2ccc(C3CCN(C(=O)C4COCCO4)CC3)cc2c1=O (stereo not drawn) [Example 178] gave an IC50 of 34 nM.
With CC(=O)N1CCC(c2ccc3ncn(CC(=O)NCc4ccc(Cl)c(C(F)(F)F)c4)c(=O)c3c2)CC1 [Example 163] the IC50 was 1 nM.
In the case of CN(Cc1ccc(C#N)c(Cl)c1)C(=O)Cn1cnc2ccc(C3CCN(C(=O)C4CC(F)(F)C4)CC3)cc2c1=O [Example 140], the IC50 is reported as 47 nM.
With CC(=O)N1CCN(c2ccc3ncn(CC(=O)NCc4cccc(C#N)c4C)c(=O)c3c2)CC1 [Example 35] the IC50 was 71 nM.
Work on CC(C)C(=O)N1CCN(c2ccc3ncn(CC(=O)N(C)Cc4ccc(Cl)c(Cl)c4)c(=O)c3c2)CC1 [Example 69] yielded an IC50 of 3 nM.
Molecule CNC(=O)C[C@@H](NC(=O)Cn1cnc2ccc(N3CCN(C(C)=O)CC3)cc2c1=O)c1ccc([N+](=O)[O-])cc1 [Example 9, (3R)-3-[[2-[6-(4-Acetylpiperazin-1-yl)-4-oxoquinazolin-3-yl]acetyl]amino]-N-methyl-3-(4-nitrophenyl)propanamide] has an IC50 of 54 nM.
Work on COCCC(=O)N1CCC(c2cc(F)c3ncn(CC(=O)N(C)Cc4ccc(C#N)c(Cl)c4)c(=O)c3c2)CC1 [Example 188, N-[(3-Chloro-4-cyanophenyl)methyl]-2-[8-fluoro-6-[1-(3-methoxypropanoyl)piperidin-4-yl]-4-oxoquinazolin-3-yl]-N-methylacetamide] yielded an IC50 of 1 nM.
For O=C(Cn1cnc2ccc(N3CCN(C(=O)Nc4cccnc4)CC3)cc2c1=O)NCc1ccc(Cl)c(Cl)c1 [Example 87], the IC50 was 76 nM.
